The results in this text go back to ChEMBL document CHEMBL4007448, “The derivatives of Pulsatilla saponin A, a bioactive compound from Pulsatilla chinensis: Their synthesis, cytotoxicity, haemolytic toxicity and mechanism of action” (Eur J Med Chem, 2017).

In one data set the test system is A549. Briefly: Cytotoxicity against human A549 cells assessed as reduction in cell viability after 48 hrs by MTT assay. Format: functional, cell-based. The settings on record: A549, 48 h. A general note: Formazan colour is commonly taken as a measure of viable cells.
In another data set the test system is SMMC-7721. Briefly: Cytotoxicity against human SMMC7721 cells assessed as reduction in cell viability after 48 hrs by MTT assay. Format: functional, cell-based. The settings on record: SMMC-7721, 48 h.
Another data set has as its system BGC-823. Briefly: Cytotoxicity against human BGC823 cells assessed as reduction in cell viability after 48 hrs by MTT assay. It counts as functional, cell-based. Particulars: BGC-823, 48 h.
Data set [1] can be described thus: Hemolytic activity against New Zealand rabbit erythrocytes after 60 mins. Format: ADME, cell-based, Oryctolagus cuniculus, Erythrocyte. Particulars: read-out: HD50.

In general, IC50 refers to the concentration at which inhibition is half-maximal. As for `CC(=O)OC[C@@]1(C)[C@@H]2CC[C@]3(C)[C@H](CC(O)[C@]45OC(=O)[C@@]6(CCC(C)(C)C[C@H]64)CC[C@@]35C)[C@@]2(C)CC[C@@H]1O[C@@H]1OC[C@H](OC(C)=O)[C@H](OC(C)=O)[C@H]1O[C@@H]1O[C@H](C)[C@H](OC(C)=O)[C@@H](OC(C)=O)[C@H]1OC(C)=O` (some centres not stated), the concentration for half-maximal inhibition (IC50) is above 100 µM with A549, 90.2 µM with SMMC-7721 and above 100 µM with BGC-823.
Turning to `C[C@H]1O[C@@H](O[C@H]2[C@H](O[C@H]3CC[C@@]4(C)[C@@H](CC[C@]5(C)[C@@H]4C/C(=N/O)[C@@H]4[C@@H]6CC(C)(C)CC[C@]6(C(=O)O)CC[C@]45C)[C@]3(C)CO)OC[C@H](O)[C@@H]2O)[C@H](O)[C@H](O)[C@H]1O`, the HC50 at 1 h in data set [1] was above 500 µM. Further, the results for the IC50 with A549, with SMMC-7721 and with BGC-823 were above 100 µM, 69.4 µM and 95.6 µM, respectively.
In the same order, the values of `C[C@H]1O[C@@H](O[C@H]2[C@H](O[C@H]3CC[C@@]4(C)[C@@H](CC[C@]5(C)[C@@H]4C(=O)C=C4[C@@H]6CC(C)(C)CC[C@]6(C(=O)O)CC[C@]45C)[C@]3(C)CO)OC[C@H](O)[C@@H]2O)[C@H](O)[C@H](O)[C@H]1O` are above 500 µM, above 100 µM, 58.8 µM and 82.6 µM.
Consider `C[C@H]1O[C@@H](O[C@H]2[C@H](O[C@H]3CC[C@@]4(C)[C@@H](CC[C@]5(C)[C@@H]4CC(=O)[C@@H]4[C@@H]6CC(C)(C)CC[C@]6(C(=O)O)CC[C@]45C)[C@]3(C)CO)OC[C@H](O)[C@@H]2O)[C@H](O)[C@H](O)[C@H]1O`, for which the HC50 at 1 h in data set [1] worked out at 190 µM. The IC50 was determined as 91 µM in the data set with A549, 53.8 µM in the data set with SMMC-7721 and 77.2 µM in the data set on BGC-823.
With `C[C@H]1O[C@@H](O[C@H]2[C@H](O[C@H]3CC[C@@]4(C)[C@@H](CC[C@]5(C)[C@@H]4CC(=O)[C@]46OC(=O)[C@@]7(CCC(C)(C)C[C@H]74)CC[C@@]56C)[C@]3(C)CO)OC[C@H](O)[C@@H]2O)[C@H](O)[C@H](O)[C@H]1O`, the HC50 at 1 h in data set [1] is above 500 µM. The IC50 with A549 is above 100 µM; with SMMC-7721, 70.6 µM; in the data set with BGC-823, 80.3 µM.
`CC(=O)OC[C@@]1(C)[C@@H]2CC[C@]3(C)[C@H](CC=C4[C@@H]5CC(C)(C)CC[C@]5(C(=O)O)CC[C@]43C)[C@@]2(C)CC[C@@H]1O[C@@H]1OC[C@H](OC(C)=O)[C@H](OC(C)=O)[C@H]1O[C@@H]1O[C@H](C)[C@H](OC(C)=O)[C@@H](OC(C)=O)[C@H]1OC(C)=O`: the IC50 in the data set on A549 worked out at 72.1 µM; in the data set with SMMC-7721, 69.9 µM; in the data set with BGC-823, 74 µM.
Consider `C[C@H]1O[C@@H](O[C@H]2[C@H](O[C@H]3CC[C@@]4(C)[C@@H](CC[C@]5(C)[C@@H]4CC(=O)[C@@H]4[C@@H]6CC(C)(C)CC[C@]6(C(=O)NCC(=O)O)CC[C@]45C)[C@]3(C)CO)OC[C@H](O)[C@@H]2O)[C@H](O)[C@H](O)[C@H]1O`, for which, in data set [1], the HC50 at 1 h is 339 µM. In addition, the IC50 with A549 was determined as 95.8 µM; in the data set on SMMC-7721 it was 44 µM; in the data set on BGC-823 it was 86.1 µM.
Consider `C[C@H]1O[C@@H](O[C@H]2[C@H](O[C@H]3CC[C@@]4(C)[C@@H](CC[C@]5(C)[C@@H]4CC=C4[C@@H]6CC(C)(C)CC[C@]6(C(=O)OCCO[N+](=O)[O-])CC[C@]45C)[C@]3(C)CO)OC[C@H](O)[C@@H]2O)[C@H](O)[C@H](O)[C@H]1O`, for which the HC50 at 1 h in data set [1] was found to be 16.2 µM. In addition, the IC50 with A549 was 80.2 µM; with SMMC-7721 it was 17.8 µM; in the data set with BGC-823, 33.1 µM.
As for `C[C@H]1O[C@@H](O[C@H]2[C@H](O[C@H]3CC[C@@]4(C)[C@@H](CC[C@]5(C)[C@@H]4CC=C4[C@@H]6CC(C)(C)CC[C@]6(C(=O)OCCCCO[N+](=O)[O-])CC[C@]45C)[C@]3(C)CO)OC[C@H](O)[C@@H]2O)[C@H](O)[C@H](O)[C@H]1O`, in data set [1], the HC50 at 1 h amounted to 14.9 µM. The figures for the IC50 in the data set with A549, in the data set on SMMC-7721 and in the data set on BGC-823 were 84.5 µM, 22.1 µM and 66.5 µM, respectively.
Taken in the same sequence, the figures for `C[C@H]1O[C@@H](O[C@H]2[C@H](O[C@H]3CC[C@@]4(C)[C@@H](CC[C@]5(C)[C@@H]4C(=O)C=C4[C@@H]6CC(C)(C)CC[C@]6(C(=O)NCC(=O)O)CC[C@]45C)[C@]3(C)CO)OC[C@H](O)[C@@H]2O)[C@H](O)[C@H](O)[C@H]1O` were 461 µM, above 100 µM, 46.7 µM and 93.7 µM.
Taken in the same sequence, the figures for `C[C@H]1O[C@@H](O[C@H]2[C@H](O[C@H]3CC[C@@]4(C)[C@@H](CC[C@]5(C)[C@@H]4CC=C4[C@@H]6CC(C)(C)CC[C@]6(C(=O)NCCCC(=O)O)CC[C@]45C)[C@]3(C)CO)OC[C@H](O)[C@@H]2O)[C@H](O)[C@H](O)[C@H]1O` were 313 µM, 98.7 µM, 27.3 µM and 70.2 µM.
For the compound `C[C@H]1O[C@@H](O[C@H]2[C@H](O[C@H]3CC[C@@]4(C)[C@@H](CC[C@]5(C)[C@@H]4CC(O)[C@]46OC(=O)[C@@]7(CCC(C)(C)C[C@H]74)CC[C@@]56C)[C@]3(C)CO)OC[C@H](O)[C@@H]2O)[C@H](O)[C@H](O)[C@H]1O` (some centres not stated), the HC50 at 1 h in data set [1] was 77.7 µM. Moreover, the IC50 in the data set on A549 is above 100 µM; with SMMC-7721 it was 56.6 µM; with BGC-823, 81.9 µM.
Turning to `C[C@H]1O[C@@H](O[C@H]2[C@H](O[C@H]3CC[C@@]4(C)[C@@H](CC[C@]5(C)[C@@H]4CC=C4[C@@H]6CC(C)(C)CC[C@]6(C(=O)NCC(=O)NCC(=O)O)CC[C@]45C)[C@]3(C)CO)OC[C@H](O)[C@@H]2O)[C@H](O)[C@H](O)[C@H]1O`, in data set [1], the HC50 at 1 h was above 500 µM. The figures for the IC50 in the data set on A549, in the data set with SMMC-7721 and in the data set on BGC-823 were above 100 µM, 57.8 µM and 76.3 µM, respectively.
For `C[C@H]1O[C@@H](O[C@H]2[C@H](O[C@H]3CC[C@@]4(C)[C@@H](CC[C@]5(C)[C@@H]4CC=C4[C@@H]6CC(C)(C)CC[C@]6(C(=O)NCCCCC(=O)O)CC[C@]45C)[C@]3(C)CO)OC[C@H](O)[C@@H]2O)[C@H](O)[C@H](O)[C@H]1O`, the HC50 at 1 h in data set [1] is 228 µM. Further, the IC50 was above 100 µM in the data set with A549, 26.8 µM in the data set on SMMC-7721 and 67.8 µM with BGC-823.
With `C[C@H]1O[C@@H](O[C@H]2[C@H](O[C@H]3CC[C@@]4(C)[C@@H](CC[C@]5(C)[C@@H]4CC=C4[C@@H]6CC(C)(C)CC[C@]6(C(=O)OCCCCCCO[N+](=O)[O-])CC[C@]45C)[C@]3(C)CO)OC[C@H](O)[C@@H]2O)[C@H](O)[C@H](O)[C@H]1O`, in data set [1], the HC50 at 1 h turned out to be 3.79 µM. Moreover, the figures for the IC50 in the data set with A549, in the data set on SMMC-7721 and in the data set with BGC-823 were 65.2 µM, 15.4 µM and 33.1 µM, respectively.
Consider `C[C@H]1O[C@@H](O[C@H]2[C@H](O[C@H]3CC[C@@]4(C)[C@@H](CC[C@]5(C)[C@@H]4CC=C4[C@@H]6CC(C)(C)CC[C@]6(C(=O)NCCCCCC(=O)O)CC[C@]45C)[C@]3(C)CO)OC[C@H](O)[C@@H]2O)[C@H](O)[C@H](O)[C@H]1O`, for which the HC50 at 1 h in data set [1] was 393 µM. The results for the IC50 in the data set with A549, with SMMC-7721 and in the data set with BGC-823 were above 100 µM, 27.4 µM and 65.5 µM, respectively.
